# Laboratory results taken from US20060003016A1, “Therapeutic method for endolymphatic hydrops associated diseases” (priority 2004, published 2006).
# Counter-ions that a name gives are not always drawn.
# Key:
# [1] = system: patients with Meniere's disease and endolymphatic hydrops associated diseases; assay: Clinical course of vertigo, aural fullness, tinnitus and hearing in clinical cases; format: in vivo, patient
# Excerpt: Therapeutic method of our invention is always performed after general examinations and standard laboratory examinations, such as blood pressure, plasma electrolytes, and urine osmolality. After consideration of body weight, age, sex, and life style, we directed the patients to take adequate water (see below) every day in combination with short-term application with isosorbite®. During the initial stage of the water intake method, recommended volume of water intake for adult male, weighing 60 kg, is calculated as 1.8-2.1 l per day according to the following formula (F 1). […] They seem to be nervous and live under the very strong psychological pressure.
# The present invention is explained in detail by mentioning clinical cases.
# [2] = system: rats; settings: arginine-vasopressin induced rats; cited from earlier work
# [3] = system: guinea pig; settings: after administration of AVP; cited from earlier work
# [4] = case 3, isosorbide 63 g t.d.s. and difenidol hydrochloride 75 mg t.d.s. together for 6 days, July 28, 2000
# [5] = case 3, isosorbide 63 g t.d.s. and difenidol hydrochloride 75 mg t.d.s. together for 14 days, March 2000
smiles,measurement,setting,value
"O[C@@H]1CO[C@H]2[C@@H]1OC[C@@H]2O [isosorbide, reference compound]",time until rotatory vertigo was improved,"[1]; case 1, attack of Jan. 24, 2003, isosorbide 63 g t.d.s. with water intake 2 lit./day continued",≤ 3 h
same,right ear hearing,"[1]; case 1, isosorbide 63 g t.d.s. for one week, reexamination Dec. 6, 2002",improved to the normal level
same,left hearing,[1]; [4],improved to normal range
same,left hearing,[1]; [5],improved
same,right hearing,"[1]; case 4, isosorbide 63 g t.d.s. orally for 2 weeks",no improvement
"CCCCC[C@H](O)/C=C/[C@H]1[C@H](O)CC(=O)[C@@H]1CCCCCCC(=O)O [PGE1, reference compound]",low frequency sensorineural hearing loss of the left ear,"[1]; case 5, steroid, VB12 and vasodilator (prostaglandin:PGE1) together",no improvement
"NC(=O)CC[C@@H]1NC(=O)[C@H](Cc2ccccc2)NC(=O)[C@H](Cc2ccc(O)cc2)NC(=O)[C@@H](N)CSSC[C@@H](C(=O)N2CCC[C@H]2C(=O)N[C@@H](CCCN=C(N)N)C(=O)NCC(N)=O)NC(=O)[C@H](CC(N)=O)NC1=O [AVP, arginine vasopressin]",ABR (auditory brainstem evoked response) threshold,[2],increase in ABR (auditory brainstem evoked response) threshold
same,endolymphatic hydrops,[3],endolymphatic hydrops was produced
"OC(CCCN1CCCCC1)(c1ccccc1)c1ccccc1 [difenidol hydrochloride, reference compound]",left hearing,[1]; [4],improved to normal range
same,left hearing,[1]; [5],improved
